Here are results for 2 compounds from patent publication US10894837B2, “MMP9 inhibitors and uses thereof in the prevention or treatment of a depigmenting disorder” (UNIVERSITE DE BORDEAUX, priority 2016, dated 2021).

Holding throughout (format): cell-based
In test [1] the test system is MMP9 gene expression. Briefly: Real-time PCR analysis of MMP9 gene expression in reconstructed human pigmented epidermis treated with TNFα and IFNγ. The following applies: 24 h, 10 ng/ml TNFα and IFNγ, 1 μM and 10 μM inhibitor, real-time PCR (FIG. 13A). On the procedure: (§1) Reconstructed human pigmented epidermis were treated 24 h with or without 10 ng/ml of TNFα and IFNγ in the presence or absence of 1 μM and 10 μM of MMP9 inhibitors ab142180 or SB-CT. (A) Real-time PCR analysis of MMP9 gene expression. Results are expressed as a fold increase above control culture. GAPDH was used as a housekeeping gene. (B) Measurement of MMP9 levels by ELISA in cell-free supernatants.
(§2) As discussed above, TNFα and IFNγ induce MMP9 gene expression in melanocyte. Inventors used two commercially available synthetic MMP9 inhibitors, SB3CT (a […]) and a selective MMP9 inhibitor (ab142180), to assess whether such inhibition could inhibit TNFα and IFNγ effects on depigmentation. In vitro reconstructed human epidermis containing melanocytes were stimulated with these two cytokines in the presence or absence of the two different MMP9 inhibitors for 24 h (FIG. 5). The combination of TNFα and IFNγ induced melanocyte detachment and E-cadherin inhibition.
After 10 days of reconstruction (D10), reconstructed human pigmented epidermis (RHEm) are placed in 6 wells plate (NUNC reference 140675) in 2 ml of culture medium without hydrocortisone to which 10 ng/ml of interferon (IFN)-γ (R&D systems) and 10 ng/ml of “tumor necrosis factor (TNF)-α” (R&D systems) are added. A control condition without cytokines addition is performed. […]

Test [2] relates to Reconstructed human epidermis containing melanocytes. Briefly: TNFα and IFNγ-induced melanocyte detachment in reconstructed human epidermis, immunofluorescence of melan-A and E-cadherin. The following applies: 24 h, 20 ng/ml TNFα and IFNγ, 10 μM inhibitor (FIG. 5). How it is done: Reconstructed human epidermis containing melanocytes were stimulated 24 h with or without 20 ng/ml of TNFα and IFNγ in the presence or absence of 10 μM of MMP9 inhibitor ab142180 or SB-CT. Immunofluorescence microscopy analysis of melan-A (red) and E-cadherin (green) expression, Magnification 400×. White arrows show melanocytes that are detached from the basal layer of the epidermis.
as §2
Pigmented epidermis (RHEm) are reconstructed from normal human keratinocytes (NHEK) and from normal human melanocytes (NHEM), previously isolated from preputial samples. […]
Then reading with a fluorescence microscope for the analysis of melanocytes detachment.

The test system of test [3] is MMP9. Briefly: MMP9 levels by ELISA in cell-free supernatants of reconstructed human pigmented epidermis treated with TNFα and IFNγ. The conditions noted are these: 24 h, 10 ng/ml TNFα and IFNγ, 1 μM and 10 μM inhibitor, ELISA in cell-free supernatants (FIG. 13B). On the procedure: as §1, §2
After 10 days of reconstruction (D10), reconstructed human pigmented epidermis (RHEm) are placed in 6 wells plate (NUNC reference 140675) in 2 ml of culture medium without hydrocortisone to which 10 ng/ml of interferon (IFN)-γ (R&D systems) and 10 ng/ml of “tumor necrosis factor (TNF)-α” (R&D systems) are added. A control condition without cytokines addition is performed. Each experimental condition is performed in duplicate or triplicate.
(In general: In an ELISA, binding on a coated surface is turned into a signal by an enzyme label.)

With `O=S(=O)(CC1CS1)c1ccc(Oc2ccccc2)cc1` (stereo not shown) [SB3CT, 2-[[(4-phenoxyphenyl)sulfonyl]methyl]-Thiirane], in test [1], the “MMP9 expression induced by the combination of IFNγ and TNFα, gene level” value is reported as “reduced”. The “TNFα and IFNγ-induced melanocyte detachment and E-cadherin inhibition” value in test [2] is recorded as “strongly inhibited”. Besides, the “MMP9 expression induced by the combination of IFNγ and TNFα, protein level (MMP9 production)” value was “reduced” in test [3] and “reduces” in test [3] (listed as SB-CT).
As for `CCN(CC)Cc1cc(C)c(N(Cc2ccccc2)S(=O)(=O)c2ccc(OC)cc2)c(C(=O)NO)c1` [ab142180, 2-(N-benzyl-4-methoxyphenylsulfonamido)-5-((diethylamino)methyl)-N-hydroxy-3-methylbenzamide], the “MMP9 expression induced by the combination of IFNγ and TNFα, gene level” value in test [1] is “reduced”. Moreover, the “TNFα and IFNγ-induced melanocyte detachment and E-cadherin inhibition” value in test [2] was “strongly inhibited”. Also, the “MMP9 expression induced by the combination of IFNγ and TNFα, protein level (MMP9 production)” value in test [3] is “reduced”.
